These results are taken from US5955520A, “Photochromic indeno-fused naphthopyrans” (PPG Industries, Inc., priority 1996, dated 1999).

The nature of series [1]: photochromic response rates on an optical bench (test squares). In kind it is physicochemical. The following applies: for ΔOD @ Saturation: UV exposure continued for 20 minutes; for ΔOD @ Saturation / Sensitivity ΔOD/min: polymer test square, 75° F.; for Sensitivity ΔOD/min: first five (5) seconds of UV exposure, expressed per minute, 1.5 times 10^-3 molal; for Bleach Rate T 1/2: time for absorbance to reach one half the highest absorbance after removal of activating light, room temperature (75° F., 23.9° C.). On the procedure:
(§1) Testing was done with the Example 1 and Comparative Example 1 photochromic naphthopyrans incorporated into polymeric samples by the following method. The quantity of naphthopyran calculated to yield a 1.5 times 10^-3 molal solution was added to a flask containing 50 grams of a monomer blend of 4 parts ethoxylated bisphenol A dimethacrylate (BPA 2EO DMA), 1 part poly(ethylene glycol) 600 dimethacrylate, and 0.033 weight percent 2,2'-azobis(2-methyl proprionitrile) (AIBN). The naphthopyran was dissolved into the monomer blend by stirring and gentle heating, if necessary. After a clear solution was obtained, it was poured into a flat sheet mold having the interior dimensions of 2.2 mm×6 inches (15.24 cm)×6 inches (15.24 cm). The mold was sealed and placed in a horizontal air flow, programmable oven set to increase the temperature from 40° C. to 95° C. over a 5 hour interval, hold the temperature at 95° C. for 3 hours and then lower it to 60° C., for at least 2 hours before the end of the curing cycle. After the mold was opened, the polymer sheet was cut using a diamond blade saw into 2 inch (5.1 centimeters) test squares.
The photochromic test squares of Part A were tested for photochromic response rates on an optical bench. Prior to testing on the optical bench, the photochromic test squares were exposed to 365 nanometer ultraviolet light for about 15 minutes to activate the photochromic compounds and then placed into a 76° C. oven for about 15 minutes to bleach the photochromic compounds. The test squares were then cooled to room temperature, exposed to fluorescent room lighting for at least 2 hours and then kept covered for at least 2 hours prior to testing on an optical bench maintained at 75° F. (23.90° C.).
The optical bench comprises a 150 watt Xenon arc lamp, a tungsten lamp, power supplies for both lamps, condensing lenses as needed to maintain collimated light beams from both lamps, a remote controlled shutter, a copper sulfate bath acting as a heat sink for the arc lamp, a Schott WG-320 nm cut-off filter which removes short wavelength radiation, neutral density filter(s), a sample holder in which the sample to be tested is inserted, a photopic filter, light detector, and radiometer assembly, a strip chart recorder, and a means for maintaining the alignment of the aforestated components during testing.
Change in optical density (Δ OD) of a sample was determined by inserting a photochromic test sample in the bleached state into the sample holder, adjusting the transmittance scale to 100%, opening the shutter from the Xenon lamp to provide ultraviolet radiation to change the sample from the bleached state to an activated (darkened) state, measuring the transmittance through the sample. The transmittance was measured by directing a beam of light from the tungsten lamp at a small angle normal to the surface of the sample, through the sample, and to a photopic filter, light detector and radiometer assembly. The photopic filter passes wavelengths such that the detector mimics the response of the human eye and produces output signals that are processed by the radiometer. The change in optical density was calculated according to the formula Δ OD=log(100/%Ta) where %Ta is the percent transmittance in the activated state and the logarithm is to the base 10.
The Δ OD/Min, which represents the sensitivity of the photochromic compound's response to UV light, was measured over the first five (5) seconds of UV exposure, then expressed on a per minute basis. The saturation optical density (OD) was taken under identical conditions as the Δ OD/Min, except UV exposure was continued for 20 minutes. The lambda max (Vis) is the wavelength in the visible spectrum at which the maximum absorption of the activated (colored) form of the photochromic compound in the test square occurs. […]

Series [2] in a line: UV/Visible spectrophotometer test of photochromic test squares (lambda max, molal absorptivity). In kind it is physicochemical. Conditions: for λ max Vis (major) / λ max Vis (minor): activated (colored) form; for λ max Vis (major): major peak; for λ max Vis (major) / λ max Vis (minor) / Molal Absorpt. (ε) / λ max UV: test square; for λ max Vis (minor): minor peak; for Molal Absorpt. (ε): at λ max in the UV, ε=A/bm; for λ max UV: ultraviolet wavelength closest to the visible spectrum. On the procedure: as §1
The photochromic test square polymerizates of Example 1 and Comparative Example 1 prepared in Part A were tested in a UV/Visible spectrophotometer to determine the lambda (λ) max (Vis) and the lambda max (UV) wavelengths. The lambda max (Vis) is the wavelength of the visible spectrum at which the maximum absorption of the activated (colored) form of the photochromic compound in a test square occurs. The lambda max (UV) is the wavelength of the ultraviolet range closest to the visible spectrum at which the absorption of the photochromic compound occurs.
The molal absorptivity or molal extinction coefficient (ε) reported in Table 2 is equal to the absorbance of the photochromic compound in a test square at the λ max in the UV (A) divided by the thickness of the test square in centimeters (b) multiplied by the concentration of the photochromic compound in the test square in moles per kilogram (m) according to the formula: ε=A/bm

Setting [3] is: in comparison to Comparative Example (CE) 1.

`CCOC(=O)CC1(O)c2ccccc2-c2c1c1c(c3ccccc23)OC(c2ccccc2)(c2ccccc2)C=C1` (stereo not shown) [Example 1, 3,3-diphenyl-13-hydroxy-13-(2-oxo-2-ethoxyethyl)-1H-indeno[2,1-f]naphtho[1,2-b] pyran]: in series [1], the “bleach rate, i.e., fade rate (in words)” value is recorded as “acceptable bleach rate”; the “ΔOD @ Saturation” value is reported as 1.0; the “Sensitivity ΔOD/min” value is on record as 0.34 ΔOD/min; the “Bleach Rate T 1/2” value came to 5.63 min. In addition, in series [1] (setting [3]), the “sensitivity, i.e., coloration rate (in words)” value is reported as “greater sensitivity” and the “Δ OD at saturation, i.e., activated intensity (in words)” value is listed as “higher Δ OD at saturation”. In addition, in series [2], the “λ max Vis (major)” value is on record as 536 nm, the “λ max Vis (minor)” value worked out at 425 nm, the “Molal Absorpt. (ε)” value was 12,218 and the “λ max UV” value amounted to 360 nm. Further, in series [2] (in comparison to CE 1), the “molal absorptivity (ε) in the UV spectrum (in words)” value is recorded as “higher molal absorptivity”. Also, the “λ max UV and λ max Vis of the major peak (in words)” value in series [2] (in comparison to CE 1, bathochromic shift) was “higher λ max UV and λ max Vis of the major peak”.

Take `COC(=O)c1c2c(c3ccccc3c1-c1ccccc1)OC(c1ccccc1)(c1ccccc1)C=C2` [CE 1, 2,2-diphenyl-5-methoxycarbonyl-6-phenyl-[2H]-naphtho[1,2-b]pyran, reference compound]: in series [1], the “ΔOD @ Saturation” value turned out to be 0.68, the “Sensitivity ΔOD/min” value was 0.19 ΔOD/min and the “Bleach Rate T 1/2” value was determined as 3.83 min. In series [2], the “λ max Vis (major)” value turned out to be 482 nm, the “λ max Vis (minor)” value worked out at 407 nm, the “Molal Absorpt. (ε)” value is given as 5709 and the “λ max UV” value turned out to be 346 nm.
